{
  "source": "paper PMC12396409",
  "about": "“Screening and hit evaluation of a microbial metabolite library against the pathogenic Plasmodium falciparum and Toxoplasma gondii parasites” (International Journal for Parasitology: Drugs and Drug …, 2025)",
  "key": {"[1]": {"test_system": "P. falciparum 3D7 parasites", "experiment": "P. falciparum growth inhibition assay, 1-cycle (72 h treatment), SYBR DNA staining (library screen at 2 μg/mL and dose-response)", "type": "cell-based, Plasmodium falciparum", "conditions": "for activity at 2 µg/mL: Plasmodium falciparum"}, "[2]": {"test_system": "P. falciparum 3D7 parasites", "experiment": "P. falciparum growth inhibition assay, 2-cycle (120 h treatment), delayed-death screen and dose-response", "type": "cell-based, Plasmodium falciparum", "conditions": "for activity at 2 µg/mL: Plasmodium falciparum"}, "[3]": {"test_system": "T. gondii RH strain (RH-Tub-eYFP) tachyzoites", "experiment": "microbe, parasite or virus in culture", "type": "cell-based, Toxoplasma gondii", "conditions": "72 h, 72 h; for percent parasite growth at 2 µg/mL: Toxoplasma gondii"}, "[4]": {"conditions": "P. falciparum 3D7, 72 h, library screen at 2 μg/mL, % growth, replicate 1"}, "[5]": {"conditions": "P. falciparum 3D7, 72 h, library screen at 2 μg/mL, % growth, replicate 2"}, "[6]": {"conditions": "P. falciparum 3D7, 120 h, library screen at 2 μg/mL, % growth, replicate 1"}, "[7]": {"conditions": "P. falciparum 3D7, 120 h, library screen at 2 μg/mL, % growth, replicate 2"}, "[8]": {"conditions": "T. gondii RH, library screen at 2 μg/mL, % growth, replicate 1"}, "[9]": {"conditions": "T. gondii RH, library screen at 2 μg/mL, % growth, replicate 2"}},
  "note": "Read-outs that look alike come from different tables or passages of the source.",
  "data": [
    {"compound": "CC(/C=C/[C@@]1(C)[C@H](C)CCC(=O)[C@@H]1C)=C\\Cc1c(O)c(Cl)c(C)c(C=O)c1O", "note": "[Ascochlorin]", "values": [
      {"measurement": "activity at 2 µg/mL", "setting": "[1]; 3D7, library screen at 2 μg/mL, 72 h, % growth, replicate 1, read-out: Pf_72h_%Growth_Rep1", "result": 79.8, "unit": "%"},
      {"measurement": "activity at 2 µg/mL", "setting": "[1]; 3D7, library screen at 2 μg/mL, 72 h, % growth, replicate 2, read-out: Pf_72h_%Growth_Rep2", "result": 84.8, "unit": "%"},
      {"measurement": "activity at 2 µg/mL", "setting": "[2]; 3D7, library screen at 2 μg/mL, 120 h, % growth, replicate 1, read-out: Pf_120h_%Growth_Rep1", "result": 141, "unit": "%"},
      {"measurement": "activity at 2 µg/mL", "setting": "[2]; 3D7, library screen at 2 μg/mL, 120 h, % growth, replicate 2, read-out: Pf_120h_%Growth_Rep2", "result": 86.1, "unit": "%"},
      {"measurement": "percent parasite growth at 2 µg/mL", "setting": "[3]; library screen at 2 μg/mL, % growth, replicate 1, read-out: Tg_72h_%Growth_Rep1", "result": 69.4, "unit": "%"},
      {"measurement": "percent parasite growth at 2 µg/mL", "setting": "[3]; library screen at 2 μg/mL, % growth, replicate 2, read-out: Tg_72h_%Growth_Rep2", "result": 87.7, "unit": "%"}
    ]},
    {"compound": "O=c1cc2ccocc-2o1", "note": "[BIA-K1792]", "values": [
      {"measurement": "Pf_72h_%Growth_Rep1", "setting": "[1]; [4]", "result": 80.31, "unit": "%"},
      {"measurement": "Pf_72h_%Growth_Rep2", "setting": "[1]; [5]", "result": 115.37, "unit": "%"},
      {"measurement": "Pf_120h_%Growth_Rep1", "setting": "[2]; [6]", "result": 89.46, "unit": "%"},
      {"measurement": "Pf_120h_%Growth_Rep2", "setting": "[2]; [7]", "result": 104.67, "unit": "%"},
      {"measurement": "Tg_72h_%Growth_Rep1", "setting": "[3]; [8]", "result": 114.69, "unit": "%"},
      {"measurement": "Tg_72h_%Growth_Rep2", "setting": "[3]; [9]", "result": 93.25, "unit": "%"}
    ]},
    {"compound": "CC(=O)N[C@H]1[C@H](O[C@@H]2c3ccc(c(Cl)c3)Oc3cc4cc(c3O[C@@H]3O[C@H](CO)[C@@H](O)[C@H](O)[C@H]3NC(=O)CCCCCCC(C)C)Oc3ccc(cc3Cl)C[C@H]3NC(=O)[C@H](N)c5ccc(O)c(c5)Oc5cc(O)cc(c5)[C@H](NC3=O)C(=O)N[C@H]4C(=O)N[C@H]3C(=O)N[C@@H]2C(=O)N[C@H](C(=O)O)c2cc(O)cc(O[C@H]4O[C@H](CO)[C@@H](O)[C@H](O)[C@@H]4O)c2-c2cc3ccc2O)O[C@H](CO)[C@@H](O)[C@@H]1O", "note": "[Teicoplanin A2-2]", "values": [
      {"measurement": "Pf_72h_%Growth_Rep1", "setting": "[1]; P. falciparum, 72 h, parasite screen 2 μg/mL, % growth, replicate 1", "result": 72.71, "unit": "%"},
      {"measurement": "Pf_72h_%Growth_Rep2", "setting": "[1]; P. falciparum, 72 h, parasite screen 2 μg/mL, % growth, replicate 2", "result": 85.08, "unit": "%"},
      {"measurement": "Pf_120h_%Growth_Rep1", "setting": "[2]; P. falciparum, 120 h, parasite screen 2 μg/mL, % growth, replicate 1", "result": 148.39, "unit": "%"},
      {"measurement": "Pf_120h_%Growth_Rep2", "setting": "[2]; P. falciparum, 120 h, parasite screen 2 μg/mL, % growth, replicate 2", "result": 93.23, "unit": "%"},
      {"measurement": "Tg_72h_%Growth_Rep1", "setting": "[3]; T. gondii, parasite screen 2 μg/mL, % growth, replicate 1", "result": 90.69, "unit": "%"},
      {"measurement": "Tg_72h_%Growth_Rep2", "setting": "[3]; T. gondii, parasite screen 2 μg/mL, % growth, replicate 2", "result": 106.25, "unit": "%"}
    ]},
    {"compound": "C/C1=C\\[C@@H](C)C/C=C/[C@H]2[C@@H]3O[C@]3(C)[C@@H](C)[C@H]3[C@H](Cc4c[nH]c5ccccc45)NC(=O)[C@]32C(=O)/C=C/C(=O)[C@@H]1O", "note": "[Chaetoglobosin A]", "values": [
      {"measurement": "activity at 2 µg/mL", "setting": "[1]; 3D7, 72 h, P. falciparum, 72 h, screen at 2 μg/mL, replicate 1, read-out: Pf_72h_%Growth_Rep1", "result": 10.6, "unit": "%"},
      {"measurement": "activity at 2 µg/mL", "setting": "[1]; 3D7, 72 h, P. falciparum, 72 h, screen at 2 μg/mL, replicate 2, read-out: Pf_72h_%Growth_Rep2", "result": 0.38, "unit": "%"},
      {"measurement": "activity at 2 µg/mL", "setting": "[2]; 3D7, 120 h, P. falciparum, 120 h, screen at 2 μg/mL, replicate 1, read-out: Pf_120h_%Growth_Rep1", "result": 17.4, "unit": "%"},
      {"measurement": "activity at 2 µg/mL", "setting": "[2]; 3D7, 120 h, P. falciparum, 120 h, screen at 2 μg/mL, replicate 2, read-out: Pf_120h_%Growth_Rep2", "result": 22.2, "unit": "%"},
      {"measurement": "percent parasite growth at 2 µg/mL", "setting": "[3]; T. gondii, screen at 2 μg/mL, replicate 1, read-out: Tg_72h_%Growth_Rep1", "result": 51.1, "unit": "%"},
      {"measurement": "percent parasite growth at 2 µg/mL", "setting": "[3]; T. gondii, screen at 2 μg/mL, replicate 2, read-out: Tg_72h_%Growth_Rep2", "result": 65.4, "unit": "%"}
    ]},
    {"compound": "O=C1CCCC2C3CC(CN12)C1CCCCN1C3", "note": "(stereo not drawn) [BIA-L1951]", "values": [
      {"measurement": "Pf_72h_%Growth_Rep1", "setting": "[1]; [4]", "result": 95.10, "unit": "%"},
      {"measurement": "Pf_72h_%Growth_Rep2", "setting": "[1]; [5]", "result": 93.40, "unit": "%"},
      {"measurement": "Pf_120h_%Growth_Rep1", "setting": "[2]; [6]", "result": 173.37, "unit": "%"},
      {"measurement": "Pf_120h_%Growth_Rep2", "setting": "[2]; [7]", "result": 101.50, "unit": "%"},
      {"measurement": "Tg_72h_%Growth_Rep1", "setting": "[3]; [8]", "result": 86.61, "unit": "%"},
      {"measurement": "Tg_72h_%Growth_Rep2", "setting": "[3]; [9]", "result": 107.54, "unit": "%"}
    ]},
    {"compound": "CCC1C=C(C)CC(C)CC(OC)C2OC(O)(C(=O)C(=O)N3CCCCC3C(=O)OC(C(C)=CC3CCC(Cl)C(OC)C3)C(C)C(O)CC1=O)C(C)CC2OC", "note": "(stereo not drawn) [BIA-P1385]", "values": [
      {"measurement": "Pf_72h_%Growth_Rep1", "setting": "[1]; P. falciparum 3D7, 72 h, parasite screen at 2 μg/mL, % growth, replicate 1", "result": 6.43, "unit": "%"},
      {"measurement": "Pf_72h_%Growth_Rep2", "setting": "[1]; P. falciparum 3D7, 72 h, parasite screen at 2 μg/mL, % growth, replicate 2", "result": 7.66, "unit": "%"},
      {"measurement": "Pf_120h_%Growth_Rep1", "setting": "[2]; P. falciparum 3D7, 120 h, parasite screen at 2 μg/mL, % growth, replicate 1", "result": 11.40, "unit": "%"},
      {"measurement": "Pf_120h_%Growth_Rep2", "setting": "[2]; P. falciparum 3D7, 120 h, parasite screen at 2 μg/mL, % growth, replicate 2", "result": 13.77, "unit": "%"},
      {"measurement": "Tg_72h_%Growth_Rep1", "setting": "[3]; T. gondii, parasite screen at 2 μg/mL, % growth, replicate 1", "result": 65.99, "unit": "%"},
      {"measurement": "Tg_72h_%Growth_Rep2", "setting": "[3]; T. gondii, parasite screen at 2 μg/mL, % growth, replicate 2", "result": 84.21, "unit": "%"}
    ]},
    {"compound": "CCCCCCCCCCCC(=O)N[C@H]1CCOC1=O", "note": "[Dodecanoyl-L-homoserine lactone]", "values": [
      {"measurement": "Pf_72h_%Growth_Rep1", "setting": "[1]; library screen at 2 μg/mL, 72 h, % growth, replicate 1", "result": 84.60, "unit": "%"},
      {"measurement": "Pf_72h_%Growth_Rep2", "setting": "[1]; library screen at 2 μg/mL, 72 h, % growth, replicate 2", "result": 89.07, "unit": "%"},
      {"measurement": "Pf_120h_%Growth_Rep1", "setting": "[2]; library screen at 2 μg/mL, 120 h, % growth, replicate 1", "result": 96.32, "unit": "%"},
      {"measurement": "Pf_120h_%Growth_Rep2", "setting": "[2]; library screen at 2 μg/mL, 120 h, % growth, replicate 2", "result": 89.02, "unit": "%"},
      {"measurement": "Tg_72h_%Growth_Rep1", "setting": "[3]; library screen at 2 μg/mL, % growth, replicate 1", "result": 110.87, "unit": "%"},
      {"measurement": "Tg_72h_%Growth_Rep2", "setting": "[3]; library screen at 2 μg/mL, % growth, replicate 2", "result": 103.60, "unit": "%"}
    ]},
    {"compound": "COC(=O)C1=COC(C)C2CN3CCc4c([nH]c5cc(OC)c(OC)cc45)C3CC12", "note": "(stereo not drawn) [BIA-I1957]", "values": [
      {"measurement": "Pf_72h_%Growth_Rep1", "setting": "[1]; [4]", "result": 25.00, "unit": "%"},
      {"measurement": "Pf_72h_%Growth_Rep2", "setting": "[1]; [5]", "result": 24.20, "unit": "%"},
      {"measurement": "Pf_120h_%Growth_Rep1", "setting": "[2]; [6]", "result": 15.82, "unit": "%"},
      {"measurement": "Pf_120h_%Growth_Rep2", "setting": "[2]; [7]", "result": -7.23, "unit": "%"},
      {"measurement": "Tg_72h_%Growth_Rep1", "setting": "[3]; [8]", "result": 168.01, "unit": "%"},
      {"measurement": "Tg_72h_%Growth_Rep2", "setting": "[3]; [9]", "result": 105.99, "unit": "%"}
    ]}
  ]
}
